Experimental data published in PubChem BioAssay (NCI).
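Cells were grown in 96-well plates and exposed to each compound for 48 hours at five concentrations; endpoints were interpolated linearly between bracketing concentrations, or set to the highest concentration if not reached. TGI: total growth inhibition.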

Test system: KM12 colon
Assay: NCI tumour cell line growth inhibition, 48 h

Row | Structure (SMILES) | TGI [µM]
1 | CNS(=O)(=O)NNS(=O)(=O)c1ccc2ccccc2c1 | > 100
2 | CCOC(=O)CN1C(=O)c2cccc3cc([N+](=O)[O-])cc(c23)C1=O | 8.73
3 | CC(N)Cc1ccc(C(=O)Cl)cc1 (stereo not given) | > 100

Test system: KM20L2 colon
Assay: NCI tumour cell line growth inhibition, 48 h

Row | Structure (SMILES) | TGI [µM]
4 | CCN(CC)CCC(=O)Nc1ccc2c(c1)C(=O)c1ccc(NC(=O)CCN(CC)CC)cc1C2=O | 28
5 | COc1ccc(C(=O)C(C(=O)CCC(=O)Nc2ccc(C)c(C)c2)c2ccc(OC)cc2)cc1 (stereo not given) | > 100
6 | COc1cc2c(cc1OC)-c1c3cc(O)ccc3nn[n+]1CC2 | > 100
7 | CCCCCCCCCCCCCCCCCC(CCCCCCCCCCCCCCCCC)OP(=O)(O)O | > 100
8 | O=C(COc1ccc(Br)cc1Br)N1N=C(c2ccc([N+](=O)[O-])o2)CC1(O)c1ccccc1 (stereo not given) | 58.8
9 | CNS(=O)(=O)NNS(=O)(=O)c1ccc2ccccc2c1 | > 100
10 | CCOC(=O)CN1C(=O)c2cccc3cc([N+](=O)[O-])cc(c23)C1=O | 26.5
11 | CC(N)Cc1ccc(C(=O)Cl)cc1 (stereo not given) | > 100

Test system: LOX IMVI melanoma
Assay: NCI tumour cell line growth inhibition, 48 h

Row | Structure (SMILES) | TGI [µM]
12 | CCN(CC)CCC(=O)Nc1ccc2c(c1)C(=O)c1ccc(NC(=O)CCN(CC)CC)cc1C2=O | 6.19
13 | COc1ccc(C(=O)C(C(=O)CCC(=O)Nc2ccc(C)c(C)c2)c2ccc(OC)cc2)cc1 (stereo not given) | > 100
14 | COc1cc2c(cc1OC)-c1c3cc(O)ccc3nn[n+]1CC2 | > 100
15 | CCCCCCCCCCCCCCCCCC(CCCCCCCCCCCCCCCCC)OP(=O)(O)O | > 100
16 | O=C(COc1ccc(Br)cc1Br)N1N=C(c2ccc([N+](=O)[O-])o2)CC1(O)c1ccccc1 (stereo not given) | 18.4
17 | CNS(=O)(=O)NNS(=O)(=O)c1ccc2ccccc2c1 | > 100
18 | CCOC(=O)CN1C(=O)c2cccc3cc([N+](=O)[O-])cc(c23)C1=O | 2.74
19 | CC(N)Cc1ccc(C(=O)Cl)cc1 (stereo not given) | > 100

Test system: LXFL 529 NSCLC
Assay: NCI tumour cell line growth inhibition, 48 h

Row | Structure (SMILES) | TGI [µM]
20 | CCN(CC)CCC(=O)Nc1ccc2c(c1)C(=O)c1ccc(NC(=O)CCN(CC)CC)cc1C2=O | 12
21 | COc1ccc(C(=O)C(C(=O)CCC(=O)Nc2ccc(C)c(C)c2)c2ccc(OC)cc2)cc1 (stereo not given) | > 100
22 | COc1cc2c(cc1OC)-c1c3cc(O)ccc3nn[n+]1CC2 | > 100
23 | CCCCCCCCCCCCCCCCCC(CCCCCCCCCCCCCCCCC)OP(=O)(O)O | > 100
24 | O=C(COc1ccc(Br)cc1Br)N1N=C(c2ccc([N+](=O)[O-])o2)CC1(O)c1ccccc1 (stereo not given) | 21.6
25 | CNS(=O)(=O)NNS(=O)(=O)c1ccc2ccccc2c1 | > 100
26 | CCOC(=O)CN1C(=O)c2cccc3cc([N+](=O)[O-])cc(c23)C1=O | 3.13
27 | CC(N)Cc1ccc(C(=O)Cl)cc1 (stereo not given) | > 100

Test system: M14 melanoma
Assay: NCI tumour cell line growth inhibition, 48 h

Row | Structure (SMILES) | TGI [µM]
28 | CCN(CC)CCC(=O)Nc1ccc2c(c1)C(=O)c1ccc(NC(=O)CCN(CC)CC)cc1C2=O | 27.1
29 | COc1ccc(C(=O)C(C(=O)CCC(=O)Nc2ccc(C)c(C)c2)c2ccc(OC)cc2)cc1 (stereo not given) | > 100
30 | COc1cc2c(cc1OC)-c1c3cc(O)ccc3nn[n+]1CC2 | > 100
31 | CCCCCCCCCCCCCCCCCC(CCCCCCCCCCCCCCCCC)OP(=O)(O)O | > 100
32 | O=C(COc1ccc(Br)cc1Br)N1N=C(c2ccc([N+](=O)[O-])o2)CC1(O)c1ccccc1 (stereo not given) | 21.9
33 | CNS(=O)(=O)NNS(=O)(=O)c1ccc2ccccc2c1 | > 100
34 | CCOC(=O)CN1C(=O)c2cccc3cc([N+](=O)[O-])cc(c23)C1=O | 11.5
35 | CC(N)Cc1ccc(C(=O)Cl)cc1 (stereo not given) | > 100

Test system: M19-MEL melanoma
Assay: NCI tumour cell line growth inhibition, 48 h

Row | Structure (SMILES) | TGI [µM]
36 | CCN(CC)CCC(=O)Nc1ccc2c(c1)C(=O)c1ccc(NC(=O)CCN(CC)CC)cc1C2=O | > 100
37 | COc1ccc(C(=O)C(C(=O)CCC(=O)Nc2ccc(C)c(C)c2)c2ccc(OC)cc2)cc1 (stereo not given) | > 100
38 | COc1cc2c(cc1OC)-c1c3cc(O)ccc3nn[n+]1CC2 | > 100
39 | CCCCCCCCCCCCCCCCCC(CCCCCCCCCCCCCCCCC)OP(=O)(O)O | > 100
40 | CNS(=O)(=O)NNS(=O)(=O)c1ccc2ccccc2c1 | > 100
41 | CC(N)Cc1ccc(C(=O)Cl)cc1 (stereo not given) | > 100

Test system: MALME-3M melanoma
Assay: NCI tumour cell line growth inhibition, 48 h

Row | Structure (SMILES) | TGI [µM]
42 | COc1ccc(C(=O)C(C(=O)CCC(=O)Nc2ccc(C)c(C)c2)c2ccc(OC)cc2)cc1 (stereo not given) | > 100
43 | CCCCCCCCCCCCCCCCCC(CCCCCCCCCCCCCCCCC)OP(=O)(O)O | > 100
44 | O=C(COc1ccc(Br)cc1Br)N1N=C(c2ccc([N+](=O)[O-])o2)CC1(O)c1ccccc1 (stereo not given) | 25.1
45 | CNS(=O)(=O)NNS(=O)(=O)c1ccc2ccccc2c1 | > 100
46 | CCOC(=O)CN1C(=O)c2cccc3cc([N+](=O)[O-])cc(c23)C1=O | 5.23
47 | CC(N)Cc1ccc(C(=O)Cl)cc1 (stereo not given) | > 100

Test system: MOLT-4 leukemia
Assay: NCI tumour cell line growth inhibition, 48 h

Row | Structure (SMILES) | TGI [µM]
48 | CCN(CC)CCC(=O)Nc1ccc2c(c1)C(=O)c1ccc(NC(=O)CCN(CC)CC)cc1C2=O | 12.2
49 | COc1cc2c(cc1OC)-c1c3cc(O)ccc3nn[n+]1CC2 | > 100
50 | CCCCCCCCCCCCCCCCCC(CCCCCCCCCCCCCCCCC)OP(=O)(O)O | > 100
